# Assay results reported in US5849736A, “Isoxazoline and isoxazole fibrinogen receptor antagonists” (The DuPont Merck Pharmaceutical Company, priority 1995, dated 1998).
# Counter-ions that a name gives are not always drawn.
# System: platelet aggregation in human platelet rich plasma (PRP)
# Experiment: Platelet Aggregation Assay (platelet rich plasma, with or without esterase pretreatment)
# Assay type: cell-based
# Details: Platelet, preincubated with 100 IU/mL porcine liver esterase 2 hours at 37° C., 100 μM ADP, read-out: Platelet Aggregation Assay IC50 (with esterase)
# Protocol: Venous blood was obtained from the arm of a healthy human donor who was drug-free and aspirin-free for at least two weeks prior to blood collection. Blood was collected into 10 mL citrated Vacutainer tubes. The blood was centrifuged for 15 minutes at 150×g at room temperature, and platelet-rich plasma (PRP) was removed. The remaining blood was centrifuged for 15 minutes at 1500×g at room temperature, and platelet-poor plasma (PPP) was removed. Samples were assayed on a aggregometer (PAP-4 Platelet Aggregation Profiler), using PPP as the blank (100% transmittance). 200 μL of PRP was added to each micro test tube, and transmittance was set to 0%. 20 μL of various agonists (ADP, collagen, arachidonate, epinephrine, thrombin) were added to each tube, and the aggregation profiles were plotted (% transmittance versus time). The results are expressed as % inhibition of agonist-induced platelet aggregation. For the IC50 evaluation, the test compounds were added at various concentrations prior to the activation of the platelets.
# Ester prodrugs were preincubated (10^-3 M F.C.) with 100 IU/mL Porcine liver esterase (Sigma Chemical Co., St. Louis, Mo., #E-3128) for 2 hours at 37° C. Aliquots are then diluted in 0.1M Tris, pH 7.4, to the desired concentrations. Aliquots of 20 μl of the esterase pretreated prodrugs are added to 200 μl of human platelet rich plasma. Samples were placed in platelet profiler (aggregometer) for 8 minutes at 37° C., followed by the addition of 100 μM Adenosine Diphosphate, (Sigma Chemical Co., St. Louis, Mo., #A-6521), to induce platelet aggregation. Platelet aggregation was allowed to proceed for 5 minutes. Percent inhibition is calculated using percent aggregation in the presence of the test compound divided by percent aggregation of control, times 100. This value is subtracted from 100, yielding percent inhibition. Calculation of IC50 is performed on a Texas Instruments TI59 with an IC50 program.
# Table A below sets forth the antiplatelet activity of representative compounds of the present invention. The indicated compounds were tested for their ability to inhibit platelet aggregation (using platelet rich plasma (PRP)). The IC50 value (the concentration of antagonist which inhibits platelet aggregation by 50% relative to a control lacking the antagonist) is shown. In Table 5 the IC50 values are expressed as: +++=IC50 of <10 μM; ++=IC50 of 10-50 μM; +=IC50 of 50-100 μM (μM=micromolar).
row,SMILES,IC50 [µM]
1,CCOC(=O)CC(NC(=O)CC1CC(c2ccc(C(=N)N)cc2)=NO1)C(=O)NCC12CC3CC(CC(C3)C1)C2 (stereo not shown) [Example 462],< 10
2,COC(=O)C(CNC(=O)CC1CC(c2ccc(C(=N)N)cc2)=NO1)NS(=O)(=O)c1cccc(Br)c1 (stereo not shown) [Example 544],< 10
3,COC(=O)C(CNC(=O)CC1CC(c2ccc(C(=N)N)cc2)=NO1)NS(=O)(=O)NC(C)(C)C (stereo not shown) [Example 506],< 10
4,COC(=O)C(CNC(=O)CC1CC(c2ccc(C(=N)N)cc2)=NO1)NS(=O)(=O)c1sc(NC(C)=O)nc1C (stereo not shown) [Example 553],< 10
5,"COC(=O)CC(CC(=O)OC)NC(=O)CC1CC(c2ccc(C(=N)N)cc2)=NO1 (racemic) [Example 365, Methyl {5(R,S)-N-[3-(4-amidinophenyl)isoxazolin-5-ylacetyl]amino}-4-(methoxycarbonyl)butanoate . trifluoroacetic acid salt]",< 10
6,COC(=O)C(CNC(=O)CC1CC(c2ccc(C(=N)N)cc2)=NO1)NS(=O)(=O)c1cccc(Cl)c1Cl (stereo not shown) [Example 542],< 10
7,COC(=O)C(CNC(=O)CC1CC(c2ccc(C(=N)N)cc2)=NO1)NS(=O)(=O)c1ccc(Cl)cc1 (stereo not shown) [Example 487],< 10
8,"COC(=O)CCC(CC(=O)OC)NC(=O)CC1CC(c2ccc(C(=N)N)cc2)=NO1 (racemic) [Example 368, trifluoroacetic acid salt]",< 10
9,CCCS(=O)(=O)NC(CNC(=O)CC1CC(c2ccc(C(=N)N)cc2)=NO1)C(=O)OC (stereo not shown) [Example 490],< 10
10,CCOC(=O)CC1CCCCN1C(=O)CC1CC(c2ccc(C(=N)N)cc2)=NO1 (stereo not shown) [Example 413],< 10
11,COC(=O)C(CNC(=O)CC1CC(c2ccc(C(=N)N)cc2)=NO1)NC(=O)c1ccc(-c2ccccc2)cc1 (stereo not shown) [Example 523],< 10
12,COC(=O)C(CNC(=O)CC1CC(c2ccc(C(=N)N)cc2)=NO1)NS(=O)(=O)c1ccc(-c2cc(C(F)(F)F)n(C)n2)s1 (stereo not shown) [Example 550],< 10
13,N=C(N)NCCC1=NOC(CC(=O)NCC(NC(=O)OCc2ccccc2)C(=O)O)C1 (stereo not shown) [Example 2109],< 10
14,COC(=O)C(CNC(=O)CC1CC(c2ccc(C(=N)N)cc2)=NO1)NC(=O)OCc1ccccc1Br (stereo not shown) [Example 527],< 10
15,COC(=O)C(CNC(=O)CC1CC(c2ccc(C(=N)N)cc2)=NO1)NC(=O)OCCC1CC1 (stereo not shown) [Example 533],< 10
16,COC(=O)C(CNC(=O)CC1CC(c2ccc(C(=N)N)cc2)=NO1)NC(=O)OCC(C)C (stereo not shown) [Example 531],< 10
17,"COC(=O)[C@H](CNC(=O)CC1CC(c2ccc(C(=N)N)cc2F)=NO1)NS(=O)(=O)c1cccc(C)c1 (stereo partly shown) [Example 512, Methyl N^2-(m-toluenesulfonyl)-N^3-[3-(4-amidino-2-fluorophenyl)isoxazolin-5-ylacetyl]-S-2,3-diaminopropionate hydrochloric acid salt]",< 10
18,COC(=O)C(CNC(=O)CC1CC(c2ccc(C(=N)N)cc2)=NO1)NC(=O)OCc1ccccc1 (stereo not shown) [Example 312],< 10
19,Cn1cnc(S(=O)(=O)NC(CNC(=O)CC2CC(c3ccc(C(=N)N)cc3)=NO2)C(=O)O)c1 (stereo not shown) [Example 643],< 10
20,N=C(N)NCCCCC1=NOC(CCC(=O)NCC(NC(=O)OCc2ccccc2)C(=O)O)C1 (stereo not shown) [Example 2404],< 10
21,COC(=O)C(CNC(=O)CC1CC(c2ccc(C(=N)N)cc2)=NO1)NS(=O)(=O)c1cccc(Cl)c1 (stereo not shown) [Example 476],< 10

row,SMILES,IC50 [µM]
1,CCC(CC(=O)OC)NC(=O)CC1CC(c2ccc(C(=N)N)cc2)=NO1 (stereo not shown) [Example 115],< 10
2,COC(=O)C(CNC(=O)CC1CC(c2ccc(C(=N)N)cc2)=NO1)NS(=O)(=O)c1c(C)nn(C)c1Cl (stereo not shown) [Example 547],< 10
3,COC(=O)C(CNC(=O)CC1CC(c2ccc(C(=N)N)cc2)=NO1)NS(=O)(=O)c1ccccc1Br (stereo not shown) [Example 543],< 10
4,N=C(N)NCCC1CC(CCC(=O)NCC(NC(=O)OCc2ccccc2)C(=O)O)=NO1 (stereo not shown) [Example 2280],< 10
5,COC(=O)C(CNC(=O)Cc1cc(-c2ccc(C(=N)N)cc2)no1)NC(=O)OCc1ccccc1 (stereo not shown) [Example 727],< 10
6,CC(C)(C)OC(=O)NC(=N)c1ccc(C2=NOC(CC(=O)NCC(NS(=O)(=O)c3ccc(S(=O)(=O)c4ccccc4)s3)C(=O)O)C2)cc1 (stereo not shown) [Example 2120],< 10
7,"COC(=O)[C@H](CNC(=O)CC1CC(c2ccc(C(=N)N)cc2)=NO1)NS(=O)(=O)c1cccc(C)c1 (stereo partly drawn) [Example 473A, Methyl N^2-3-methylphenylsulfonyl-N^3-[3-(4-amidinophenyl)isoxazolin-5R-ylacetyl]-S-2,3-diaminopropionate trifluoroacetic acid salt]",< 10
8,COC(=O)C(CNC(=O)CC1CC(c2ccc(C(=N)N)cc2)=NO1)NS(=O)(=O)c1ccccc1Cl (stereo not shown) [Example 479],< 10
9,COC(=O)C(CNC(=O)CC1CC(c2ccc(C(=N)N)cc2)=NO1)NS(=O)(=O)Nc1ccccc1 (stereo not shown) [Example 509],< 10
10,COC(=O)C(CNC(=O)CC1CC(c2ccc(C(=N)N)cc2)=NO1)NS(=O)(=O)c1cc2ccccc2s1 (stereo not shown) [Example 555],< 10
11,COC(=O)c1ccccc1S(=O)(=O)NC(CNC(=O)CC1CC(c2ccc(C(=N)N)cc2)=NO1)C(=O)OC (stereo not shown) [Example 477],< 10
12,CCCCNS(=O)(=O)NC(CNC(=O)CC1CC(c2ccc(C(=N)N)cc2)=NO1)C(=O)OC (stereo not shown) [Example 504],< 10
13,COC(=O)C(CNC(=O)CC1CC(c2ccc(C(=N)N)cc2)=NO1)NS(=O)(=O)c1ccccc1F (stereo not shown) [Example 482],< 10
14,CCNC(=N)c1ccc(C2=NOC(CC(=O)NCC(NS(=O)(=O)c3ccccc3C)C(=O)OC)C2)cc1 (stereo not shown) [Example 2115],< 10
15,COC(=O)C(CNC(=O)CC1CC(c2ccc(C(=N)N)cc2)=NO1)NS(=O)(=O)c1cc(C)c(Cl)cc1C (stereo not shown) [Example 541],< 10
16,CCCCNC(=N)c1ccc(C2=NOC(CC(=O)NCC(NS(=O)(=O)c3ccccc3C)C(=O)O)C2)cc1 (stereo not shown) [Example 2114],< 10
17,COC(=O)CC(NC(=O)CC1CC(c2ccc(C(=N)N)cc2)=NO1)C(=O)N(C)CCc1ccccc1 (stereo not shown) [Example 454],< 10
18,"N=C(N)c1ccc(C2=NOC(CC(=O)N[C@@H](CC(=O)O)C(=O)NCCc3ccccc3)C2)cc1 (stereo partly drawn) [Example 435, (S)-N^α -[3-(4-Amidinophenyl)-isoxazolin-5-(R,S)-ylacetyl]-α-aspart-N-(2-phenylethyl)amide, trifluoroacetic acid salt]",< 10
19,COC(=O)[C@H](CNC(=O)CC1CC(c2ccc(C(=N)N)cc2)=NO1)NS(=O)(=O)c1ccc(C)cc1 (stereo partly shown) [Example 327],< 10
20,COC(=O)CC1CCCCN1C(=O)CC1CC(c2ccc(C(=N)N)cc2)=NO1 (stereo not shown) [Example 394],< 10
21,COc1ccccc1CNC(=N)c1ccc(C2=NOC(CC(=O)NCC(NS(=O)(=O)c3ccccc3C)C(=O)O)C2)cc1 (stereo not shown) [Example 2112],< 10

# Same assay, conditions: Platelet, without esterase, read-out: Platelet Aggregation Assay IC50 (without esterase)
row,SMILES,IC50 [µM]
1,N=C(N)c1ccc(C2=NOC(CC(=O)NCC(NC(=O)OCc3ccccc3Cl)C(=O)O)C2)cc1 (stereo not shown) [Example 526],< 10
2,N=C(N)c1ccc(C2=NOC(CC(=O)NC(CC(=O)O)C(=O)NCC34CC5CC(CC(C5)C3)C4)C2)cc1 (stereo not shown) [Example 463],< 10
3,N=C(N)c1ccc(C2=NOC(CC(=O)NCC(NC(=O)OCc3ccccc3Br)C(=O)O)C2)cc1 (stereo not shown) [Example 528],< 10

# Same assay, conditions: preincubated with 100 IU/mL porcine liver esterase 2 hours at 37° C., 100 μM ADP, read-out: Platelet Aggregation Assay IC50 (with esterase)
row,SMILES,IC50 [µM]
1,COC(=O)C[C@@H](CCc1ccccc1)NC(=O)C[C@H]1CC(c2ccc(C(=N)N)cc2)=NO1 [120C (3R)],< 10
